One experiment concerns brain β-amyloid plaques. Nature of the experiment: Blood brain barrier penetration and binding to Aβ deposits after peripheral administration (double staining with 6E10 and anti-human IgG). Particulars: 24 month arcAβ mice, 3 mg/kg i.p. weekly for 2 months; 6E10 and anti-human IgG double staining. Format: in vivo. As for the experimental part: ArcAβ mice were generated as described in the previous Examples on a hybrid background of C57B1/6 and DBA2. The test group was backcrossed once to C57B1/6. Mice were kept under standard housing conditions on a reversed 12 h:12 h light/dark cycle and had free access to food and water. The treatment groups were balanced for age and gender.
Recombinant human anti-Aβ antibody NI-101.10 was produced in stably transfected 293 HEK cells and purified using standard Protein A column purification. Control antibody Humira (Adalimumab, Abbott, Switzerland) was dissolved in medium conditioned by 293 HEK cells and purified as described.
(§1) 24 month old arcAβ mice were injected weekly i.p. with recombinant human NI-101.10 or Humira control antibody (3 mg/kg body weight) over a time period of 2 months (8 injections). The allocation of mice to the individual groups was: n=[…] and 4 wt for the NI-101.10 treatment groups; n=[…] and 6 wt for the control antibody treatment groups.
Mice were anesthetized (10 ul/g bw ketamin/xylaxine) and perfused transcardially with PBS. One brain hemisphere was dissected into cortex, hippocampus and cerebellum and immediately frozen on dry-ice for further biochemical analysis. The other hemisphere was fixed in 4% paraformaldehyde and embedded in paraffin. 5 μm sagittal sections were cut with a Leica RM 2135 microtome (Bannockburn, Ill.). […]

Another experiment concerns arcAβ mice. Briefly: fMRI vascular reactivity to acetazolamide (cerebral blood volume) after passive immunization. In kind it is in vivo. To be noted: transgenic (tg) arcAβ mice after 2 months antibody treatment. As for the experimental part: as §1
ArcAβ mice and their wildtype littermates were measured before (n=3 tg and 3 wt) or after the antibody treatment (n=5 tg NI-101.10, 4 tg Humira, […], 6 wt Humira). Mice were anesthetized with Isofluran, intubated and artificially ventilated during the MR experiment. The mice were placed on a water-heated cradle and all agents were injected via cannula into the tail vein. Experiments were performed on a 4.7 Tesla Pharmascan 47/16 (Bruker BioSpin GmbH, Germany). Scan parameters of the RARE sequence (Hennig et al., Magn. Reson. Med. 3 (1986), 823-833) were set as followed: spatial resolution: 156×156×700 μm^3, temporal resolution: 40 s, repetition time: 2500 ms, echo time (eff. TE): 80.2 ms, field of view (FOV): 2×1.3 cm^2, RARE factor: 32, matrix dimension: 128×128, slice thickness: 0.7 mm, inter-slice distance: 1.2 mm, number of averages: 4, number of slices: 5. fMRI measurement comprised 3 phases: 8 baseline images (S pre) were acquired as reference for the determination of the relative cerebral blood volume (CBVrel) changes. […]

Regarding Adalimumab [Humira], the “binding of human antibody to Aβ deposits in brain sections” value with brain β-amyloid plaques is listed as “No such binding”. In the experiment with arcAβ mice, the “mean ACBV % (integrated, after acetazolamide 30 mg/kg)” value was 500%.

These data come from patent US8022268B2, “Transgenic animal model for alzheimer's disease” (The University of Zurich, priority 2007, dated 2011).
